Test results from the Deep4Chem optical property database.
Values joined by “and” are separate entries in the source; they are usually repeats but may differ in a detail not shown here. Equal entries are not always repeated. Each block holds one compound with its values, some of them ahead of it.

Test: photoluminescence quantum yield (fraction); solvent given as SMILES
[1] = in O=P(c1ccccc1)(c1ccccc1)c1ccccc1Oc1ccccc1P(=O)(c1ccccc1)c1ccccc1

Compound: N#Cc1cc(C#N)c(-n2c3ccccc3c3cc(-c4ccc5c(c4)c4ccccc4n5-c4cc(-n5c6ccccc6c6ccccc65)c(C#N)cc4C#N)ccc32)cc1-n1c2ccccc2c2ccccc21
- photoluminescence quantum yield [1]: 0.87

Compound: CC1(C)C(/C=C/C2=C(Oc3ccc(CCN=C=S)cc3Cl)C(=C/C=C3/N(CCCS(=O)(=O)[O-])c4ccccc4C3(C)C)/CCC2)=[N+](CCCS(=O)(=O)[O-])c2ccccc21
- photoluminescence quantum yield (in CO): 0.14

Compound: CCCC1=Cc2nc1ccc1[nH]c(cc1CCC)c1nc(c(OC(C)=O)cc3[nH]c2cc3CCC)C(CCC)=C1
- photoluminescence quantum yield (in Cc1ccccc1): 0.28

Compound: N#CC(C#N)=Cc1ccc2nc(C#Cc3ccc(N(c4ccccc4)c4ccccc4)cc3)sc2c1
- photoluminescence quantum yield (in Cc1ccccc1): 0.47

Compound: CCCCCCCCC1(CCCCCCCC)c2ccccc2-c2ccc(N(c3ccc(-n4c5ccccc5c5ccccc54)cc3)c3ccc4c(c3)C(CCCCCCCC)(CCCCCCCC)c3ccccc3-4)cc21
- photoluminescence quantum yield (in C1CCOC1): 0.24
- photoluminescence quantum yield (in CC#N): 0.31
- photoluminescence quantum yield (in CC(C)=O): 0.31
- photoluminescence quantum yield (in CCCCCC): 0.27
- photoluminescence quantum yield (in CCCCOCCCC): 0.25
- photoluminescence quantum yield (in CCN(CC)CC): 0.27
- photoluminescence quantum yield (in CCOC(C)=O): 0.3
- photoluminescence quantum yield (in CCOCC): 0.37
- photoluminescence quantum yield (in CN(C)C=O): 0.32
- photoluminescence quantum yield (in Cc1ccccc1): 0.36
- photoluminescence quantum yield (in ClCCl): 0.3

Compound: Cc1cc(C)c(C2=C3C=C(/C=C/C(=O)OC(C)(C)C)C=[N+]3[B-](F)(F)n3c2ccc3N2CCOCC2)c(C)c1
- photoluminescence quantum yield (in CC#N): 0.13
- photoluminescence quantum yield (in CCCCCC): 0.88
- photoluminescence quantum yield (in CN(C)C=O): 0.15
- photoluminescence quantum yield (in CO): 0.21
- photoluminescence quantum yield (in Cc1ccccc1): 0.64
- photoluminescence quantum yield (in ClCCl): 0.49

Compound: c1ccc(-c2nc(-c3ccccc3)nc(-n3c4ccccc4c4cc(-n5c6ccccc6c6ccccc65)cc(-n5c6ccccc6c6ccccc65)c43)n2)cc1
- photoluminescence quantum yield [1]: 0.85

Compound: N#Cc1c(-n2c3ccccc3c3ccccc32)cc(N2c3ccccc3C(c3ccccc3)(c3ccccc3)c3ccccc32)cc1-n1c2ccccc2c2ccccc21
- photoluminescence quantum yield (in Cc1ccccc1): 0.27

Compound: CC1(C)c2ccccc2N(c2ccc3c(c2)S(=O)(=O)c2cc(N4c5ccccc5C(C)(C)c5ccccc54)ccc2C3(C)C)c2ccccc21
- photoluminescence quantum yield [1]: 0.62

Compound: c1ccc2c(c1)c1ccccc1n2-c1ccc(-c2nnc(-c3ccc(-n4c5ccccc5c5ccccc54)cc3)o2)cc1
- photoluminescence quantum yield [1]: 0.93

Compound: Oc1cccc2c(C3(O)C4CC5CC(C4)CC3C5)cccc12 (centres undefined)
- photoluminescence quantum yield (in CC#N): 0.33

Compound: O=[N+]([O-])c1ccc(/C=C/c2cn(S(=O)(=O)c3ccccc3)c3ccccc23)cc1
- photoluminescence quantum yield (in CC#N): 0.066
- photoluminescence quantum yield (in CCCCCCC): 0.004
- photoluminescence quantum yield (in CO): 0.002
- photoluminescence quantum yield (in O): 0.003

Compound: CCn1c2ccccc2c2cc(/C=C/c3cc(/C=C/c4ccc5c(c4)c4ccccc4n5CC)[n+](CCCS(=O)(=O)[O-])c(/C=C/c4ccc5c(c4)c4ccccc4n5CC)c3)ccc21
- photoluminescence quantum yield (in C1CCOC1): 0.12
- photoluminescence quantum yield (in CC#N): 0.05
- photoluminescence quantum yield (in CC(C)=O): 0.05
- photoluminescence quantum yield (in Cc1ccccc1): 0.09

Compound: N#Cc1ccc(C2=Cc3cc4ccccc4cc3P2(=O)c2ccccc2)cc1 (centres undefined)
- photoluminescence quantum yield (in ClCCl): 0.54

Compound: CCn1c2cc(C(C)(C)C)ccc2c2c3nsnc3c3c4ccc(C(C)(C)C)cc4n(CC)c3c21
- photoluminescence quantum yield (in CN(C)C=O): 0.07
- photoluminescence quantum yield (in Cc1ccccc1): 0.08
- photoluminescence quantum yield (in ClCCl): 0.07

Compound: CC1=[N+]2C(=C(c3c4ccccc4cc4ccccc34)c3ccc(C)n3[B-]2(F)F)C=C1
- photoluminescence quantum yield (in C1CCOC1): 0.002
- photoluminescence quantum yield (in CC#N): 0.002
- photoluminescence quantum yield (in CCO): 0.005
- photoluminescence quantum yield (in CN(C)C=O): 0.003
- photoluminescence quantum yield (in CO): 0.001
- photoluminescence quantum yield (in CS(C)=O): 0.002
- photoluminescence quantum yield (in Cc1ccccc1): 0.29
- photoluminescence quantum yield (in ClC(Cl)Cl): 0.01 and 0.004

Compound: c1ccc2c(c1)[nH]c1c3ccccc3[nH]c21
- photoluminescence quantum yield (in CCCO): 0.89

Compound: CNc1ccc2c(c1)-c1ccccc1C2=O
- photoluminescence quantum yield (in C1CCCCC1): 0.045
- photoluminescence quantum yield (in CC#N): 0.064
- photoluminescence quantum yield (in CCO): 0.0065
- photoluminescence quantum yield (in c1ccccc1): 0.19

Compound: CCCC1=Cc2nc1ccc1[nH]c(cc1CCC)c1nc(ccc3[nH]c2cc3CCC)C(CCC)=C1
- photoluminescence quantum yield (in Cc1ccccc1): 0.38

Compound: O=C(c1ccc(-n2c3ccccc3c3ccccc32)cc1)c1ccc(-n2c3ccccc3c3ccccc32)cc1
- photoluminescence quantum yield (in Cc1ccccc1): 0.21
- photoluminescence quantum yield [1]: 0.55

Compound: O=Cc1nc2ccc(C#Cc3ccc(N(c4ccc(C#Cc5ccc6nc(C=O)sc6c5)cc4)c4ccc(C#Cc5ccc6nc(C=O)sc6c5)cc4)cc3)cc2s1
- photoluminescence quantum yield (in Cc1ccccc1): 0.65

Compound: CCn1c2ccccc2c2cc(-c3cc(-c4ccc5c(c4)c4ccccc4n5CC)nc(-c4ccc(OC)cc4)n3)ccc21
- photoluminescence quantum yield (in C1CCOC1): 0.45
- photoluminescence quantum yield (in CCOC(C)=O): 0.56
- photoluminescence quantum yield (in CN(C)C=O): 0.68
- photoluminescence quantum yield (in Cc1ccccc1): 0.54
- photoluminescence quantum yield (in ClCCl): 0.42

The remaining lines, values ahead:

- photoluminescence quantum yield (in CC#N): 0.996
Compound: COc1ccc(-n2nc(C#N)c(N3CCCC3)n2)cc1OC

- photoluminescence quantum yield (in C1CCCCC1): 0.5
- photoluminescence quantum yield (in CC#N): 0.7
- photoluminescence quantum yield (in CO): 0.054
- photoluminescence quantum yield (in ClC(Cl)Cl): 0.9
Compound: CC(=O)c1ccc(-c2nc3ccc(N(C)C)c(Cl)c3s2)cc1

- photoluminescence quantum yield (in CCCCCC): 0.96
- photoluminescence quantum yield (in CO): 0.99
- photoluminescence quantum yield (in ClCCl): 0.92
Compound: CC1=CC(C)=[N+]2C1=Cc1c(C)cc(C)n1[B-]2(F)F

- photoluminescence quantum yield (in ClC(Cl)Cl): 0.09
Compound: Cc1ccc(/C2=c3\cc/c(o3)=C(\c3ccc(C)cc3)c3ccc([nH]3)-c3ccc4n3[P-](=O)(=O)[N+]3=C(C=CC3=C4c3ccco3)c3ccc2[nH]3)cc1

- photoluminescence quantum yield (in C1COCCO1): 0.19
- photoluminescence quantum yield (in CCO): 0.13
- photoluminescence quantum yield (in CN(C)C=O): 0.08
- photoluminescence quantum yield (in ClC(Cl)Cl): 0.18
Compound: CCCCCCCN1C(=CC2=C([O-])C(=CC3=[N+](CCCCCCC)c4ccccc4C3(C)C)C2=C(C#N)C#N)C(C)(C)c2ccccc21

- photoluminescence quantum yield (in CC#N): 0.015
Compound: N#Cc1cccc(-c2pc3ccccc3s2)c1 (centres undefined)

- photoluminescence quantum yield (in CO): 0.016
Compound: Nc1ccc(C#Cc2ccc3ccc4ccc(C#Cc5ccc(NS(=O)(=O)c6ccc([N+](=O)[O-])cc6[N+](=O)[O-])cc5)c5ccc2c3c45)cc1

- photoluminescence quantum yield (in ClCCl): 0.0065
Compound: CCOC(=O)/N=c1/oc2cc(OC)ccc2cc1C#N

- photoluminescence quantum yield (in C1CCCCC1): 0.93
Compound: CCCC1(CCC)c2cc(-c3ccc4c(c3)C(CCC)(CCC)c3cc(C(C)(C)CC)ccc3-4)ccc2-c2ccc(-c3ccc4c(c3)C(CCC)(CCC)c3cc(C(C)(C)CC)ccc3-4)cc21

- photoluminescence quantum yield (in c1cc(-n2c3ccccc3c3ccccc32)cc(-n2c3ccccc3c3ccccc32)c1): 0.37
Compound: N#Cc1cc(-n2c3ccccc3c3cccnc32)c(-n2c3ccccc3c3cccnc32)cc1C#N

- photoluminescence quantum yield (in CCO): 0.008
- photoluminescence quantum yield (in O): 0.14
Compound: COc1cccc(OC)c1-c1c2ccc(=[N+]3CCNCC3)cc-2oc2cc(N3CCNCC3)ccc12

- photoluminescence quantum yield (in ClC(Cl)Cl): 0.22
Compound: COc1ccc(-c2nc(-c3ccc(OC)cc3)n3ccccc23)cc1

- photoluminescence quantum yield (in CC#N): 0.7
Compound: CC1=CC(C)=[N+]2C1=C(c1ccccc1)c1c(C)cc(/C=C/c3ccccc3)n1[B-]2(F)F

- photoluminescence quantum yield (in CC#N): 0.32
- photoluminescence quantum yield (in CCO): 0.56
- photoluminescence quantum yield (in CO): 0.55
- photoluminescence quantum yield (in ClC(Cl)Cl): 0.54
Compound: CCNc1cc2c(cc1C)C(c1ccccc1C(=O)O)=C1CCCC(/C=C/C3=[N+](C)c4ccccc4C3(C)C)=C1O2

- photoluminescence quantum yield (in C1CCCCC1): 0.0087
- photoluminescence quantum yield (in c1ccccc1): 0.0012
Compound: CN(C)c1ccc2c(c1)C(=O)c1ccccc1-2

- photoluminescence quantum yield (in CCOC(C)=O): 0.99
Compound: CCn1c(-c2ccc(-c3ccc4c(c3)C(c3ccccc3)(c3ccccc3)c3ccccc3-4)cc2)c(-c2ccc3ccccc3c2)c(-c2ccc3ccccc3c2)c1-c1ccc(-c2ccc3c(c2)C(c2ccccc2)(c2ccccc2)c2ccccc2-3)cc1
